Data: patent US20250134889A1, “TARGETING IRE1 KINASE AND FMRP FOR PROPHYLAXIS, MANAGEMENT AND TREATMENT OF ATHEROSCLEROSIS” (CEDARS-SINAI MEDICAL CENTER, priority 2022, published 2025)

Test system: IRE1 kinase activity
Test: ER stress-induced IRE1 and FMRP phosphorylation in transfected MEFs (western blot)
Type: cell-based, mouse
Details: AMG-18 25 μM 1 hour pre-treatment, TG 600 nM 4 hours
Experimental: FIGS. 1A-1K depict FMRP is a new inositol-requiring enzyme-1 (IRE1) kinase substrate. A representative blot is shown from at least n=3 independent experiments. Data are mean±SEM. Unpaired 1-test with Welch's correction or paired 1-test. * P≤0.05, ** P≤0.01, *** P≤0.001. • 1A. STING analysis of published IRE1 interactome proteins in relation to FMRP (Acosta-Alvear et al., 2018). • 1B. HEK293T cells were co-transfected with IRE1 and FMRP plasmids and stimulated with TG (600 nM) or TM (1 mg/ml) for 2 hours. Protein lysates were immunoprecipitated (IP) with anti-IRE1 or IgG (control) antibodies and analyzed by Western blotting using specific antibodies for FMRP and IRE1 (n=3). • 1C. RAW 264.7 mouse macrophages were treated with either oxLDL (50 μg/ml) or TG (300 nM) for 6 hours. Protein lysates were treated with λ Phosphatase (PPase) for 30 minutes and analyzed by western blotting using specific antibodies for pFMRP, FMRP, pIRE1, IRE1 and β-Actin. pFMRP/FMRP fold induction is depicted above the blots (n=6). • 1D. […] Protein lysates were analyzed by western blotting using specific antibodies for pFMRP, FMRP, pIRE1, IRE1 and β-Actin. pFMRP/FMRP-fold induction is depicted above the blots (n=5). • 1E. […] Protein lysates were analyzed by western blotting using specific antibodies for pFMRP, FMRP, pIRE1, IRE1 and β-Actin. pFMRP/FMRP fold induction is depicted above the blots (n=4). • 1F. […]

Cc1ccc2c(NS(=O)(=O)c3ccccc3Cl)cccc2c1Oc1ncccc1-c1ccnc(N[C@H]2CCCNC2)n1 [AMG-18]
FMRP phosphorylation (pFMRP/FMRP): clearly reducing | IRE1 phosphorylation: prevented
